What was measured:
[1] = system: ERSE-FLuc reporter (ATF6 arm of the UPR); assay: ERSE-FLuc reporter, 96-well, HEK293T-Rex cells (SAR and S1P inhibition); assay type: cell-based; conditions: for ERSE reporter activity relative to 147: HEK293T-Rex, 10 μM
Method: HEK293T-Rex cells incorporating the ERSE-FLuc reporter and HEK293^DAX cells were plated approximately 20,000 cells/well in flat-bottomed, black 96-well assay plates (Costar, Corning, Inc.) overnight prior to compound administration. Cells were treated with compounds as described for 12-18 h then the plates were equilibrated to room temperature and 50 μL of SteadyLite (PerkinElmer) was added to each well. Luminescence activity was measured in a Safire II microplate reader with a 1000 ms integration time.

[2] = system: ERSE-FLuc reporter (ATF6 arm of the UPR); assay: ERSE-FLuc reporter, 1536-well confirmation screen in HEK293T-Rex cells; assay type: cell-based; conditions: % Tg (500 nM) activation, triplicate confirmation screen at 6.8 μM, 18 h
Excerpt: We employed a transcriptional reporter that quantifies activation of the ATF6 arm of the UPR in HEK293T-Rex cells. This reporter contains a fragment of the UPR-inducible BiP promoter, including three ER stress-responsive elements (ERSEs), driving expression of firefly luciferase (ERSE-FLuc; FIG. 1a)^34. We previously employed this reporter for a small-scale screen using the 1280 member compound Library of Pharmacologic Active Compounds (LoPAC) to find small molecules that activate the UPR^8. […] Optimization and miniaturization of this assay to 1536-well format was performed at the Scripps Research Institute Molecule Screening Center (SRIMSC).
(§1) HEK293T-Rex cells incorporating either the ERSE-FLuc or XBP1s-RLuc reporters were collected by trypsinization and resuspended at a density of 500,000 cells per mL. The assay was started by dispensing 5 μL of cell suspension into each well of white, solid-bottom 1536-well plates using a flying reagent dispenser (FRD) and placed into an online incubator 3 h. Cells were then treated with 34 nL/well of either test compounds to give final concentrations of 6.8 μM, DMSO (Low control, final concentration 0.68%, 0% activation) or […] of Delta-7 thapsigargin (High control, final concentration 500 nM, 100% activation). Plates were incubated for 18 h at 37° C., removed from the incubator and equilibrated to room temperature for 10 min. Luciferase activity was detected by addition of 5 μL of ONE-Glo reagent (Promega) to each well. After a 10 min incubation time, light emission was measured with the ViewLux reader (PerkinElmer). The percent activation of each test compound was calculated as follows: % Activation=100*(Test Compound−Median Low Control)/(Median High Control ˜Median Low Control).

[3] = system: XBP1-RLuc reporter (IRE1/XBP1s arm of the UPR); assay: XBP1-RLuc splicing reporter, 1536-well screen in HEK293T-Rex cells; assay type: cell-based; conditions: % Tg (500 nM) activation, triplicate confirmation screen at 6.8 μM, 18 h
Excerpt: To evaluate the selectivity of our screening hits for ATF6, we employed an alternative luciferase reporter to measure activation of the IRE1/XBP1s arm of the UPR. This reporter contains Renilla luciferase (RLuc) expressed out of frame downstream of the XBP1 splice site, preventing RLuc translation in the absence of stress (FIG. 2b)^36,37. In response to IRE1 activation, the 26-nt XBP1 intron is removed, producing a frame shift that allows for RLuc translation and activity. Robust dose-dependent activation of the XBP1-RLuc reporter upon addition of the ER stressors Tg and Tm was confirmed in HEK293T-Rex cells stably expressing the XBP1-RLuc reporter, producing a Z′ score of 0.75 for Tg.
as §1

[4] = system: BiP expression in ALMC-2 cells; assay: BiP qPCR in ALMC-2 cells; assay type: cell-based, human; conditions: 10 μM, 6 h
Method: Cells were treated as described at 37° C., washed with Dulbecco's phosphate-buffered saline (Gibco), and then RNA was extracted using the RNeasy Mini Kit (Qiagen). qPCR reactions were performed on cDNA prepared from 500 ng of total cellular RNA using the QuantiTect Reverse Transcription Kit (Qiagen). The FastStart Universal SYBR Green Master Mix (Roche), cDNA, and appropriate human primers^4 or mouse primers (BiP; […] (SEQ ID NO: 5) and […] (SEQ ID NO: 6) purchased from Integrated DNA Technologies were used for amplifications (45 cycles of 1 min at 95° C., 10 s at 95° C., 30 sec at 60° C.) in an ABI 7900HT Fast Real Time PCR machine. Primer integrity was assessed by a thermal melt to confirm homogeneity and the absence of primer dimers. Transcripts were normalized to the housekeeping gene Rplp2 and all measurements were performed in triplicate. Data were analyzed using the RQ Manager and DataAssist 2.0 softwares (ABI).

[5] = system: ^FTTTR^A25T; assay: [35S] metabolic labeling, secretion of flag-tagged TTR^A25T from HepG2^ATF6 cells; assay type: cell-based; conditions: 15 h pretreatment, 10 μM compound or 1 μM Tg, 4 h chase
Method: (§2) HepG2 cells or HEK293T cells plated on poly-D-lysine coated plates were metabolically labeled in DMEM-Cys/-Met (CellGro) supplemented with glutamine, penicillin/streptomycin, dialyzed fetal bovine serum, and EasyTag EXPRESS^35S Protein Labeling Mix (Perkin Elmer) for 30 min. Cells were washed twice with complete media and incubated in prewarmed DMEM for the indicated times. Media or lysates were harvested at the indicated times. Lysates were prepared in RIPA buffer with fresh protease inhibitor cocktail (Roche). FLAG tagged TTR variants or ALLC were immunopurified using M1 anti-FLAG agarose beads (Sigma-Aldrich) and washed three times with RIPA buffer. The immunoisolates were then eluted by boiling in Laemmli buffer and separated on SDS-PAGE. For total secreted media, 15 uL aliquots from media incubated for 4 hrs on pulsed cells were run on a SDS-PAGE. The gels were then dried, exposed to phosphorimager plates (GE Healthcare), and imaged with a Typhoon imager. Band intensities were quantified by densitometry in ImageQuant. Fraction secreted was calculated using the equation: fraction secreted=[extracellular [^35S]-LC signal at t=t/(extracellular [^35S]-LC signal at t=0+intracellular [^35S]-LC signal at t=0)]. Fraction remaining was calculated using the equation: [(extracellular [^35S]-LC signal at t=t+intracellular [^35S]-LC signal at t=t)/(extracellular [^35S]-LC signal at t=0+ intracellular [^35S]-LC signal at t=0)].

[6] = system: endogenous secretory proteome of HepG2^ATF6 cells; assay: [35S] metabolic labeling, total secreted protein from HepG2^ATF6 cells; assay type: cell-based; conditions: 15 h pretreatment, 10 μM compound or 1 μM Tg, 4 h chase
Method: as §2

[7] = system: ^FTTTR^WT; assay: [35S] metabolic labeling, secretion of flag-tagged TTR^WT from HepG2^ATF6 cells; assay type: cell-based; conditions: 15 h pretreatment, 10 μM compound or 1 μM Tg, 4 h chase
Method: as §2

[8] = system: HEK293T-Rex cells; assay: mRNA-Seq transcriptional profiling and geneset analysis in HEK293T-Rex cells; assay type: cell-based, human; conditions: 6 h, compounds 10 μM, Tg 1 μM
Method: HEK293T-Rex and HEK293^DAX cells in 12-well plates were treated for 6 h with vehicle, 1 μM Tg, 10 μM TMP (in HEK293^DAX), or 10 μM 132, 147 or 263 in biological triplicate at 37° C. Cells were harvested, and RNA was extracted using the RNeasy Mini Kit (Qiagen). Total RNA was quantified using NanoDrop (ND-1000). Samples were run on the Illuina HiSeq system.
Single end, 100 bp-long reads from RNA-Seq experiments were aligned to the GRCh37.p13 human genome reference assembly using SeqMan NGen 11.2.1 (DNAStar, Inc.). The assembly data were then imported into ArrayStar with QSeq (DNAStar, Inc.) to quantify the gene expression levels. The sequence counts were normalized to reads per kilobase per million (RPKM) after filtering out non-mRNA sequence features. The statistical significance of the difference between the expression levels of a gene under different conditions was assessed using a Student's t-test with the Benjamini-Hochberg multiple testing correction.
ATF6- and XBP1s-selective target genes were identified from transcriptional profiles of HEK293D^X cells following stress-independent activation of TMP-dependent DHFR-ATF6 and/or tetracycline inducible XBP1s, as previously described^4. PERK-selective target genes were identified from^8. Only ATF6-, XBP1s- or PERK-selective genes induced >1.5 fold in Tg-treated samples were used in this analysis. The log transformed fold-increase of these target genes in HEK293T-Rex cells treated with the respective ER proteostasis regulators were then normalized to the log transformed fold increase of these genes induced by Tg treatment. The plots shown in FIG. 5b-e were prepared as box and whisker plots using Kaleidograph. Differential activation of the ATF6, XBP1s, and PERK genesets was assessed by one-way ANOVA and significance of pairwise comparison confirmed by unpaired t-test. An analogous strategy was employed to prepare the heat map using transcriptional data from the MGE analysis.

COc1ccc(CCC(=O)Nc2cc(C)ccc2O)cc1 [RP14]
ERSE reporter activity relative to 147 [1]: slightly decrease or do not change

COc1ccccc1CCC(=O)Nc1cc(C)ccc1O [RP23]
ERSE reporter activity relative to 147 [1]: slightly decrease or do not change

Cc1ccc(O)c(NC(=O)CCc2ccccc2C)c1 [RP25]
ERSE reporter activity relative to 147 [1]: slightly decrease or do not change

O=C1N/C(=C\c2ccc(O)cc2)C(=O)N1c1cccc(Cl)c1 [Compound 238]
% ERSE-FLuc activation [2]: 68.2 ± 5.7%

Cc1ccc(O)c(NC(=O)CCc2ccccc2F)c1 [RP24]
ERSE reporter activity relative to 147 [1]: increase

Cc1cc(C)c(OCC(=O)N/N=C/c2ccc(Cl)c(O)c2)c(Br)c1 [Compound 258]
% XBP1-RLuc activation [3]: 32.6 ± 1.0%
% ERSE-FLuc activation [2]: 28.6 ± 6.1%

CCCc1cc(C(=O)Nc2cc(C)ccc2O)no1 [Compound 145]
expression of the ATF6 target gene BiP in ALMC-2 cells [4]: induced
% XBP1-RLuc activation [3]: 24.5 ± 4.7%
% ERSE-FLuc activation [2]: 83.4 ± 6.3%

Cc1ccc(O)c(NC(=O)CCc2ccccc2Cl)c1 [RP26]
ERSE reporter activity relative to 147 [1]: increase

Cc1ccc(O)c(NC(=O)CCc2c(Cl)cccc2Cl)c1 [RP27]
ERSE reporter activity relative to 147 [1]: decreases activity

C/C=C(/C)C(=O)O[C@H]1C(C)=C2[C@H]([C@@H]1OC(=O)CCCCCCC)[C@@](C)(OC(C)=O)C[C@H](OC(=O)CCC)[C@@]1(O)[C@H]2OC(=O)[C@@]1(C)O [Tg, thapsigargin, reference compound]
^FTTTR^A25T secretion (in words) [5]: reduced
accumulation of [35S]-labeled protein in media (total secreted proteome) [6]: significantly impaired
ERSE-FLuc activation on co-addition of the S1P inhibitor PF-429242 ([1]; PF-429242 10 μM, 18 h, regulators 10 μM, Tg 500 nM): impeded
^FTTTR^WT secretion (in words) [7]: reduced
BiP mRNA-Seq fold change (relative to Vh) ([8]; ATF6-selective gene): 11.6 fold
GRP94 mRNA-Seq fold change (relative to Vh) ([8]; ATF6-selective gene): 4.2 fold
SEL1L mRNA-Seq fold change (relative to Vh) ([8]; ATF6-selective gene): 7.6 fold
DNAJB1 mRNA-Seq fold change (relative to Vh) ([8]; HSF1 target gene): 0.5 fold
HSPA1A mRNA-Seq fold change (relative to Vh) ([8]; HSF1 target gene): 0.3 fold
HSPA8 mRNA-Seq fold change (relative to Vh) ([8]; HSF1 target gene): 0.3 fold
ASNS mRNA-Seq fold change (relative to Vh) ([8]; PERK target gene): 4.2 fold
DDIT3 (CHOP) mRNA-Seq fold change (relative to Vh) ([8]; PERK target gene): 13.2 fold
TrIB3 mRNA-Seq fold change (relative to Vh) ([8]; PERK target gene): 8.2 fold
ERdj3 mRNA-Seq fold change (relative to Vh) ([8]; XBP1s- or ATF6-target gene): 4.0 fold
HYOU1 mRNA-Seq fold change (relative to Vh) ([8]; XBP1s- or ATF6-target gene): 6.1 fold
p58IPK mRNA-Seq fold change (relative to Vh) ([8]; XBP1s- or ATF6-target gene): 3.9 fold
DNAJC10 mRNA-Seq fold change (relative to Vh) ([8]; XBP1s-selective gene): 2.1 fold
HSPA13 mRNA-Seq fold change (relative to Vh) ([8]; XBP1s-selective gene): 4.2 fold
SEC24D mRNA-Seq fold change (relative to Vh) ([8]; XBP1s-selective gene): 6.6 fold

CCCCNNC(=O)c1ccc(Br)cc1 [Compound 5]
% XBP1-RLuc activation [3]: 9.1 ± 0.7%
% ERSE-FLuc activation [2]: 60.9 ± 6.0%

— patent US11135186B2, “Regulators of the endoplasmic reticulum proteostasis network” (The Scripps Research Institute, priority 2015, dated 2021)
